According to patent US6849612B2, “Oligonucleotide modulation of cell adhesion” (ISIS Pharmaceuticals, Inc., priority 1993, dated 2005):
Strand notation (5' to 3'): a small letter for the sugar, then the base; units joined by * are phosphorothioate-linked, units joined directly phosphodiester-linked; [ ] holds rarer units or linkages, { } end groups; capitals alone tell only the bases. d = 2'-deoxy (DNA)

System: C8161 human melanoma cells
Assay: Experimental metastasis assay of oligonucleotide-treated C8161 cells in athymic nude mice
Format: in vivo
Experimental: To evaluate the role of ICAM-1 in metastasis, experimental metastasis assays were performed by injecting 1×10^5 C8161 cells into the lateral tail vein of athymic nude mice. […] Assoc. Cancer Res. 1990, 13, 353].
After 4 weeks, mice were sacrificed, organs were fixed in Bouin's fixative and metastatic lesions on lungs were scored with the aid of a dissecting microscope. Four-week-old female athymic nude mice (Harlan Sprague Dawley) were used. Animals were maintained under the guidelines of the NIH. Groups of 4-8 mice each were tested in experimental metastasis assays.
Treatment of C8161 cells with antisense oligonucleotides ISIS 1570 and ISIS 2302, complementary to ICAM-1, was performed in the presence of the cationic lipid, Lipofectin (Gibco/BRL, Gaithersburg, Md.). Antisense oligonucleotides were synthesized as described in Example 3. Cells were seeded in 60 mm tissue culture dishes at 10^6 cells/ml and incubated at 37 °C for 3 days, washed with OPTI-MEM (Gibco/BRL) 3 times and 100 μl of OPTI-MEM medium was added to each well. 0.5 μM oligonucleotide and 15 μg/ml lipofectin were mixed at room temperature for 15 minutes. 25 μl of the oligonucleotide-lipofectin mixture was added to the appropriate dishes and incubated at 37° C. for 4 hours. The oligonucleotide-lipofectin mixture was removed and replaced with DME-F12 medium containing 10% fetal calf serum. After 4 hours, 500 U/ml TNF-α was added to the appropriate wells and incubated for 18 hours at which time cells were removed from the plates, counted and injected into athymic nude mice.

Question: With “ISIS 1570: phosphorothioate, human ICAM-1 AUG Codon (64-81), SEQ ID NO 1, TGGGAGCCATAGCGAGGC (antisense dT*dG*dG*dG*dA*dG*dC*dC*dA*dT*dA*dG*dC*dG*dA*dG*dG*dC)” as the substance, how does the “No. Lung Metastases per Mouse (Mean ± S.E.M.)” value (C8161 cells treated with 0.5 μM oligonucleotide + Lipofectin + TNF-α, Lipofectin + TNF-α 81 ± 8) read?
Answer: 49 ± 6

Question: And the “No. Lung Metastases per Mouse (Mean ± S.E.M.)” value (C8161 cells treated with 0.5 μM oligonucleotide + Lipofectin, no TNF-α, Lipofectin only 64 ± 13)?
Answer: 38 ± 15
